These results are taken from PMC11053447, “Human ABC and SLC Transporters: The Culprit Responsible for Unspecific PSMA-617 Uptake?” (Pharmaceuticals, 2024).

One series has as its target T1, MRP4 (Homo sapiens, UniProt O15439).
T1 construct: host or cells: HEK293 (membrane vesicles)
T1 sequence (O15439 1-1325): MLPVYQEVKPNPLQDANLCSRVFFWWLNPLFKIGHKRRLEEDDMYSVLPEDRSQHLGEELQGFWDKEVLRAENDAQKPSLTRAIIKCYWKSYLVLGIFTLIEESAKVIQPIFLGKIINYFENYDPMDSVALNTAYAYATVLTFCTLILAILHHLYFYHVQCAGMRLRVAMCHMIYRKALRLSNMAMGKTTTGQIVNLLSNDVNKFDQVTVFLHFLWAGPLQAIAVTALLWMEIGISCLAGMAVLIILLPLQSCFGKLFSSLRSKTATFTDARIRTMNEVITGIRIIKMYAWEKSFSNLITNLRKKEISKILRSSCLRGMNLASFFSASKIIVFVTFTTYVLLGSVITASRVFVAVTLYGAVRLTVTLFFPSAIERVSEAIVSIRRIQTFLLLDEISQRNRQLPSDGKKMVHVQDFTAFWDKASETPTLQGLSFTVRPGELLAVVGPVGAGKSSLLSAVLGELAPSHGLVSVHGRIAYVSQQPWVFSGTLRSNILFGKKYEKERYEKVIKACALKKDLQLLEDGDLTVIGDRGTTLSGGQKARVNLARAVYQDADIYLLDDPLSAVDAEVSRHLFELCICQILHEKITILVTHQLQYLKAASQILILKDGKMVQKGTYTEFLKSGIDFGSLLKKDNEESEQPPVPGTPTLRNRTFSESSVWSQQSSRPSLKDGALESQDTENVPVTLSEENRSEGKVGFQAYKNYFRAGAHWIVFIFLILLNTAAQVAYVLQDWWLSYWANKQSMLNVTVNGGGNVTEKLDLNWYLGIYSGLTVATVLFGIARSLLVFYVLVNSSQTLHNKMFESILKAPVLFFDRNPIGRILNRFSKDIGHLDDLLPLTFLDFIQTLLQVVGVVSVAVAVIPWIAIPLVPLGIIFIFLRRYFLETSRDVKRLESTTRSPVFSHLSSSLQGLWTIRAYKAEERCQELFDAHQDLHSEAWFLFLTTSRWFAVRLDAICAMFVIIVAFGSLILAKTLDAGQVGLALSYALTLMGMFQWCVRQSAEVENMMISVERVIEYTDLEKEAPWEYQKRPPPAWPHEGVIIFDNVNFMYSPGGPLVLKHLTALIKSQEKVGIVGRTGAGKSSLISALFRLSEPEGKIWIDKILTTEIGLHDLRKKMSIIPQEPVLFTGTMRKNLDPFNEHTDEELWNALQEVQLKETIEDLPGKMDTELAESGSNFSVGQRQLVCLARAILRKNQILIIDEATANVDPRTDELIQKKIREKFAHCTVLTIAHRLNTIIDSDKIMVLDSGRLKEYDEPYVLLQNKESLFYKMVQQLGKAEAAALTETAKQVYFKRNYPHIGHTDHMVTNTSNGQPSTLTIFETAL
Description: Vesicular transport inhibition assay (ABC), MRP4-mediated DHEAS transport, HEK293 membrane vesicles. The series is classed as in vitro ADME. Particulars: for Relative inhibition / ATP dependent transport / Relative ATP dependent transport: DHEAS probe; for ATP dependent transport / Relative ATP dependent transport: mean (n=3) ± SD.

For a further series, the target named is T2, human BCRP (Homo sapiens, UniProt Q9UNQ0).
T2 sequence (Q9UNQ0 1-655): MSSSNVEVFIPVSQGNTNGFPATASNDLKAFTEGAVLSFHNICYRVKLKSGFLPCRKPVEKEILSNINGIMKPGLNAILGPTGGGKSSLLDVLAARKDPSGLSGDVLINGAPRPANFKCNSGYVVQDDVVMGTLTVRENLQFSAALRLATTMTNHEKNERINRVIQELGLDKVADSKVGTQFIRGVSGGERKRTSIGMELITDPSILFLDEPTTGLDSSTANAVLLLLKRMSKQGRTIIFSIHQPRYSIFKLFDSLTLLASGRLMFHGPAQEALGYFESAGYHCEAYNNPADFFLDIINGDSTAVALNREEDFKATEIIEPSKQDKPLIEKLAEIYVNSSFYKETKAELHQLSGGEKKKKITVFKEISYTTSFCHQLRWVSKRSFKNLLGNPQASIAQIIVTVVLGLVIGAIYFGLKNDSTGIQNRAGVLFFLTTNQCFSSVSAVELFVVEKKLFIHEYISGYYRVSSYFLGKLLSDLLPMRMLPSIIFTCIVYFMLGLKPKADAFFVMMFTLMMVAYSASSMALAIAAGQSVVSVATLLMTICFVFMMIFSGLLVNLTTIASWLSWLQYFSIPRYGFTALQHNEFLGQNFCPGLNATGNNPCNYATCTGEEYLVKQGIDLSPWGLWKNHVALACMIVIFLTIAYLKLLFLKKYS
Particulars: E3S probe; for ATP dependent transport / Relative ATP dependent transport: mean (n=3) ± SD.

The next series addresses MRP1 (Homo sapiens, UniProt P33527). Particulars: for Relative inhibition / ATP dependent transport / Relative ATP dependent transport: E217βG probe; for ATP dependent transport / Relative ATP dependent transport: mean (n=3) ± SD.
Where [1] appears, read: 0.30 and 3.00 µM, inhibition >20% defined as significant.

Where two headings read alike, the source gives them in different places.

Sequence of MRP1 (P33527 whole entry): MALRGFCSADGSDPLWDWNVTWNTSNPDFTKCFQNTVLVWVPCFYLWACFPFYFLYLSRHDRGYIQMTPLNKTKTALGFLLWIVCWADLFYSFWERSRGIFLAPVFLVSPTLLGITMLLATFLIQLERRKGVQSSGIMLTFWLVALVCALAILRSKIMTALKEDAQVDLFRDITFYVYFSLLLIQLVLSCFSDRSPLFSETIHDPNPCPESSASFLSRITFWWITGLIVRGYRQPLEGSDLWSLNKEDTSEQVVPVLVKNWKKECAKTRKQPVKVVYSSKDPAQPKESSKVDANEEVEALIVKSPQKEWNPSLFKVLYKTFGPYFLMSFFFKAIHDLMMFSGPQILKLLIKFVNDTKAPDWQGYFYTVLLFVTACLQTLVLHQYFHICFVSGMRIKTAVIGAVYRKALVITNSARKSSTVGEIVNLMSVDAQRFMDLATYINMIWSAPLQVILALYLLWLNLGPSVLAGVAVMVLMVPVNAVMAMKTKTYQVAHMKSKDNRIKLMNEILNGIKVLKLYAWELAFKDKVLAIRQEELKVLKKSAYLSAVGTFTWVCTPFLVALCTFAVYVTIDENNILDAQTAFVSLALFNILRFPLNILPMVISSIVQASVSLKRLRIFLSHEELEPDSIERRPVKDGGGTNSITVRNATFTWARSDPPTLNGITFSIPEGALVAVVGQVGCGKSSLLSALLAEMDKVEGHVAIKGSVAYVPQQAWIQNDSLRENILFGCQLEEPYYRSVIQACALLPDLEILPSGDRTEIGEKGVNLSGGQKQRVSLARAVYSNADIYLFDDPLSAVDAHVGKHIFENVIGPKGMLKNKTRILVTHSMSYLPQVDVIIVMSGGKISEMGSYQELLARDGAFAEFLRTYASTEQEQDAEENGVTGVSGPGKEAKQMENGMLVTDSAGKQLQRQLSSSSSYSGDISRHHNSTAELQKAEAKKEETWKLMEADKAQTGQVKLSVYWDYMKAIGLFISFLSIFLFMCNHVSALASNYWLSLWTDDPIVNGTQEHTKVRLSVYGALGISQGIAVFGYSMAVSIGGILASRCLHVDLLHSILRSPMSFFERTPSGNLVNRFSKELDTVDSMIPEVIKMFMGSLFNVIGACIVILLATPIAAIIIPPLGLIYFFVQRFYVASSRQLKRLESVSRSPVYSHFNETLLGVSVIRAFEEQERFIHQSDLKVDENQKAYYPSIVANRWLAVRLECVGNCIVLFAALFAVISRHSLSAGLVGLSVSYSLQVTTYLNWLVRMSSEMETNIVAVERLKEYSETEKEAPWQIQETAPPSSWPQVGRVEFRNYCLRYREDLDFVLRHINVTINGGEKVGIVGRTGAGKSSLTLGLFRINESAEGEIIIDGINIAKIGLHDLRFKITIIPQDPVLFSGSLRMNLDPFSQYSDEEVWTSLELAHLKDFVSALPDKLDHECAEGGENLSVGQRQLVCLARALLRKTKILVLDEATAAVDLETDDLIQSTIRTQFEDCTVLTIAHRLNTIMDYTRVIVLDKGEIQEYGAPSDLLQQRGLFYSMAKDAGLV
Description for MRP1: (§1) The incubations were carried out in the presence of 4 mM ATP or AMP to distinguish between transporter-mediated uptake and passive diffusion into the vesicles. […] Afterwards, the reaction mixtures were pre-incubated for 15 min at 37 °C for MRP1 or at 32 °C for BCRP, MDR1 and MRP4, respectively. The transporter assay was initiated through the addition of 25 μL of pre-warmed 12 mM MgATP (or 12 mM AMP in assay buffer as a background control). The reactions were quenched through the addition of 200 μL of ice-cold washing buffer and immediate filtration via glass fiber filters mounted onto a 96-well plate (filter plate). The filters were washed (5 × 200 μL of ice-cold washing buffer) and dried, and the amount of probe substrate inside the filtered vesicles was determined using LSC. The experiments were conducted in triplicate.
(§2) Calculation of ATP-dependent transport and inhibition for vesicular transport inhibition
(§3) For all wells the amount of the translocated probe substrate was determined in counts per minute (cpm).
(§4) ATP-dependent transport (pmol/mg protein/min) is calculated for each concentration using the following
𝐴𝑐𝑐𝐴𝑇𝑃 ∙ 𝑉 ∙ 𝐶𝐶 𝐴𝑐𝑐𝐴𝑀𝑃 ∙𝑉 ∙𝐶𝐶
(§5) 𝐴𝑇𝑃 − 𝑑𝑒𝑝𝑒𝑛𝑑𝑒𝑛𝑡 𝑎𝑐𝑐𝑢𝑚𝑢𝑙𝑎𝑡𝑖𝑜𝑛 = ( 𝑇𝐶𝑃𝑀 𝑠𝑢𝑏) − ( 𝑇𝐶𝑃𝑀 𝑠𝑢𝑏)
(§6) • AccATP: probe substrate accumulation with ATP (cpm)
(§7) • AccAMP: probe substrate accumulation with AMP (cpm)
(§8) • Tcpm: cpm in dosing solution V: volume per well (µL)
(§9) • CCsub: probe substrate concentration (µM)
• Prot: total protein per well (mg)
• t: incubation time (min)
(§10) Relative ATP-dependent transport (%) values were calculated using the following equation:
(§11) 𝑅𝑒𝑙𝑎𝑡𝑖𝑣𝑒 𝐴𝑇𝑃 − 𝑑𝑒𝑝𝑒𝑛𝑑𝑒𝑛𝑡 𝑡𝑟𝑎𝑛𝑠𝑝𝑜𝑟𝑡 (%) = 𝐴 − 𝐵 ∙ 100
(§12) • A: amount of translocated substrate in the presence of test substance (TS) and ATP
(§13) • B: amount of translocated substrate in the presence of test substance (TS) and AMP
(§14) • C: amount of translocated substrate in the presence of solvent and ATP
(§15) • D: amount of translocated substrate in the presence of solvent and AMP
(§16) Relative inhibition (%) is calculated by setting probe substrate transport in the absence of test substance as
(§17) 𝑅𝑒𝑙𝑎𝑡𝑖𝑣𝑒 𝑖𝑛ℎ𝑖𝑏𝑖𝑡𝑖𝑜𝑛 (%) = 𝐴𝑐𝑐𝑆𝑝𝑒𝑐𝑖𝑓𝑖𝑐,𝑥 ∙100
(§18) • Accspecific,x: transporter specific accumulation for a given sample (pmol/mg/min)
(§19) • Accspecific,vehicle: transporter specific accumulation for a solvent control (pmol/mg/min)
Description for human BCRP: as §1, §2, §3, §4
𝐴𝑐𝑐𝐴𝑇𝑃 ∙ 𝑉 ∙ 𝐶𝐶 𝐴𝑐𝑐𝐴𝑀𝑃 ∙𝑉 ∙𝐶𝐶
as §5, §6, §7, §8, §9
• Prot: total protein per well (mg)
• t: incubation time (min)
as §10, §11, §12, §13, §14, §15, §16, §17, §18, §19
Data are expressed as m ean
measured in the vesicular transport inhibition assay.
Nominal ATP Relative ATP Relative
Compound concentration [µM] dependent transport dependent transport inhibition [%]
[pmol/mg/min] [% of control]
Data are expressed as mean (n=3) ± SD.

As for `[3H]C(c1ccc2ccccc2c1)C([3H])(NC(=O)C1CCC(CNC(=O)CN2CCN(CC(=O)[O-])CCN(CC(=O)[O-])CCN(CC(=O)[O-])CC2)CC1)C(=O)NCCCCC(NC(=O)NC(CCC(=O)O)C(=O)O)C(=O)O.[Lu+3]` (stereo not drawn) [([α,β-^3H]Nal)Lu-PSMA-617], on MRP4 (setting [1]), the “Inhibitor assessment (MRP4)” value is “no inhibitor”. For the same compound, the Relative inhibition on MRP4 (test substance 0.30 µM nominal) is given as -1%; on MRP4 (test substance 3.00 µM nominal), -6%; at human BCRP (test substance 0.30 µM nominal), 1%; on human BCRP (test substance 3.00 µM nominal), 0%; on MRP1 (test substance 0.30 µM nominal), 9%; at MRP1 (test substance 3.00 µM nominal), 9%. In addition, the ATP dependent transport is given as 13761.00 ± 400.40 pmol/mg/min on MRP4 (test substance 0.30 µM nominal); 14510.33 ± 290.35 pmol/mg/min at MRP4 (test substance 3.00 µM nominal); 23285.00 ± 769.03 pmol/mg/min on human BCRP (test substance 0.30 µM nominal); 23687.00 ± 869.33 pmol/mg/min at human BCRP (test substance 3.00 µM nominal); 734.00 ± 31.29 pmol/mg/min on MRP1 (test substance 0.30 µM nominal); 730.00 ± 37.02 pmol/mg/min at MRP1 (test substance 3.00 µM nominal). In addition, the “Relative ATP dependent transport” value on MRP4 (test substance 0.30 µM nominal) is recorded as 100.94 ± 4.07 % of control; on MRP4 (test substance 3.00 µM nominal), 106.44 ± 3.66 % of control; at human BCRP (test substance 0.30 µM nominal), 98.5 ± 3.67 % of control; at human BCRP (test substance 3.00 µM nominal), 100.22 ± 4.06 % of control; on MRP1 (test substance 0.30 µM nominal) it was 91.45 ± 7.39 % of control; at MRP1 (test substance 3.00 µM nominal) it was 90.95 ± 7.76 % of control. In addition, the “Inhibitor assessment (MRP1)” value at MRP1 (setting [1]) was “no inhibitor”.
